Experimental data reported in patent US5591749A, “Imidazopyridines as serotonergic 5-HT3 -antagonists” (G. D. Searle & Co., priority 1995, dated 1997).
Values joined by “and” are separate entries in the source; they are usually repeats but may differ in a detail not shown here. Equal values may be shown once. Where a name gives a salt, the structure may show the parent alone. Read-outs that look alike come from different tables or passages of the source.

Columns and labels:
[1] = system: 5-HT-induced bradycardia; assay: Bezold-Jarisch reflex (5-HT-induced bradycardia) in pentobarbital anesthetized mice; format: in vivo
Description: (§1) 5-HT3 antagonism can be determined by the radioligand receptor binding assay as described herein and in the in vivo Bezold-Jarisch reflex procedure.
The test sample is administered i.p. (mg/kg) to a group of 3 mice. […] A greater than 50 percent (>50) reduction in the bradycardic response relative to vehicle-treated control mice is considered significant.
This method has been described by Saxena, P. R. and Lawang, A., Arch. Int. Pharmacodyn., 277:235-252, 1985.

[2] = biological target: T1, 5-HT3 (Mus musculus, UniProt P23979); assay: 5-HT3 binding, NG108-15 cells
T1 construct: NG108-15 Cells; endogenous in cells; host or cells: NG108-15 cells
Source text: as §1

[3] = biological target: T2, 5-HT3 receptor (Rattus norvegicus, UniProt P35563); assay: [3H]-GR65630 radioligand receptor binding assay, rat brain cortex membranes; conditions: for Hill Coefficient: 0.2 nM [3H]-GR65630
T2 construct: Brain cortices are obtained from male rats and a membrane fraction prepared by standard techniques; from tissue; host or cells: rat brain cortex membranes
T2 sequence (P35563 24-483): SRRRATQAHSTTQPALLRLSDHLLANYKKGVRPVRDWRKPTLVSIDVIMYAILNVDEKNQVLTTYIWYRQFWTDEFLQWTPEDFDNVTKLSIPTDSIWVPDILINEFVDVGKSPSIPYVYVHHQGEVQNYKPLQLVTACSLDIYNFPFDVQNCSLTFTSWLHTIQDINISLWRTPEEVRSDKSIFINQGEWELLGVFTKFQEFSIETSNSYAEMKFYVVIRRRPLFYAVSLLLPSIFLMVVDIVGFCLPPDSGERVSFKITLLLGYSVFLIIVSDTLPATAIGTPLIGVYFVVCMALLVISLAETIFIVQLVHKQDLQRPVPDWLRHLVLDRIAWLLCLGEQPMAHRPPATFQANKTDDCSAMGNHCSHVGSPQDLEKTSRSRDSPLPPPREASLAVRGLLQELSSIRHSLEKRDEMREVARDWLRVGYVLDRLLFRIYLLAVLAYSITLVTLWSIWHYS
Description: as §1
GR65630 binds to the 5-HT3 receptor. Brain cortices are obtained from male rats and a membrane fraction prepared by standard techniques. 0.04 mg of membrane prep is incubated with 0.2 nM [^3 H]-GR656630 for 60 minutes at 22° C. […] Membranes are filtered and washed 3 times and the filters are counted to determine [3H]-GR65630 specifically bound.*
Effect of Reference Compounds on
Kilpatrick GJ, Jones BJ and Tyers MB. Identification and distribution of 5-HT3 receptors in rat brain using radioligand binding. Nature, 330: 746-748, 1987.

[4] = several examples have two IC50 values, read-out: 5-HT3 binding: NG108-15 cells IC50
[5] = Mus musculus, ip, 0.5 h, read-out: Minimum Effective Dose (MED)
[6] = Mus musculus, ip, 0.5 h; read-out: Minimum Effective Dose (MED)

T1 sequence (P23979 24-489): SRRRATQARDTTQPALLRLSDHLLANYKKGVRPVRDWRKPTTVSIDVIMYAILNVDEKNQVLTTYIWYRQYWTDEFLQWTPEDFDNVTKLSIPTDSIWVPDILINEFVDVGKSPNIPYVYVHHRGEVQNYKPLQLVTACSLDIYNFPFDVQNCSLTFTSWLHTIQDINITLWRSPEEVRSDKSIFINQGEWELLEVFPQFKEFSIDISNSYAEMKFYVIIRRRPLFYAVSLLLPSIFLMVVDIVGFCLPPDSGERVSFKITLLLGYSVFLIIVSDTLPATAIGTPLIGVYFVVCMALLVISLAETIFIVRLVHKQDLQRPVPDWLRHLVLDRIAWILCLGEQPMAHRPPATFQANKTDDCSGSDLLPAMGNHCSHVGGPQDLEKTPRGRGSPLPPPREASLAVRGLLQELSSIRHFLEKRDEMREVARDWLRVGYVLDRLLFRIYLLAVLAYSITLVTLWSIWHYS

## O=C(N[C@H]1CCN2CCC[C@@H]1C2)c1cc(Cl)cn2ccnc12 (relative stereo) [Example 1, endo-N-(1-Azabicyclo[3.3.1]nonan-4-yl)-6-chloroimidazo[1,2-a]pyridine-8-carboxamide, dihydrochloride]
[1]; 1 mg/kg i.p.
  Bezold Jarisch reflex (mice); % Inhibition @ Dose (IP): 68%
[1]; 3 mg/kg i.p.
  Bezold Jarisch reflex (mice); % Inhibition @ Dose (IP): 73%
[1]; 10 mg/kg i.p.
  Bezold Jarisch reflex (mice); % Inhibition @ Dose (IP): 87%
[2]
  Ki: 137 nM

## O=C(N[C@H]1[C@H]2C[C@@H]3CN(C2)C[C@@H]31)c1cc(Cl)cn2ccnc12 (relative stereo) [Example 9, (±)-endo-N-(Hexahydro-1H-2,5β-methano-3aα,6aα-cyclopenta[c]pyrrol-4α-yl)-6-chloroimidazo[1,2-a]pyridine-8-carboxamide, monohydrochloride]
[2]
  Ki: 64 nM
[2]; [4]
  IC50: 16 nM and 127 nM

## O=C(N[C@H]1[C@H]2C[C@@H]3CN(C2)C[C@@H]31)c1cccn2ccnc12 (relative stereo) [Example 10, (±)-endo-N-(Hexahydro-1H-2,5β-methano-3aα,6aα-cyclopenta[c]pyrrol-4α-yl)imidazo[1,2-a]pyridine-8-carboxamide, hydrochloride]
[1]; 10 mg/kg i.p.
  Bezold Jarisch reflex (mice); % Inhibition @ Dose (IP): 81%
[2]
  Ki: 122 nM
[2]; [4]
  IC50: 200 nM and 243 nM

## CO[C@@H]1CN(CCCOc2ccc(F)cc2)CC[C@@H]1NC(=O)c1cccn2ccnc12 (relative stereo) [Example 13, Cis-N-[[3-(4-Fluorophenoxy)propyl]-3-methoxy-4piperidinylamine]imidazo[1,2-a]pyridine-8-carboxamide]
[1]; 10 mg/kg i.p.
  Bezold Jarisch reflex (mice); % Inhibition @ Dose (IP): 23%

## CCc1cc(C(=O)N[C@H]2[C@H]3C[C@@H]4CN(C3)C[C@@H]42)c2ccccn12 (relative stereo) [Example 15, (±)-endo-N-(Hexahydro-1H-2,5β-methano-3aα,6aα-cyclopenta[c]pyrrol-4aα-yl)-3-ethylindolizine-1-carboxamide monohydrochloride]
[2]; [4]
  IC50: 26.3 nM

## CCc1nc(C(=O)N[C@H]2[C@H]3C[C@@H]4CN(C3)C[C@@H]42)c2ccccn12 (relative stereo) [Example 16, (±)-endo-N-(Hexahydro-1H,2,5β-methano-3aα,6aα-cyclopenta[c]pyrrol-4α-yl)-3-ethylimidazo[1,5-a]pyridine-1-carboxamide, monohydrochloride]
[2]; [4]
  IC50: 30 nM

## CN1C2CCCC1CC(NC(=O)c1nn(C)c3ccccc13)C2 (stereo not shown) [BRL-43694, reference compound]
[1]; [5]
  minimal effective dose: 0.05 mg/kg

## Cl.Cl.O=C(NC1CCN2CCCC1C2)c1cccn2ccnc12 (stereo not drawn) [Example 2, endo-N-(1-Azabicyclo[3.3.1]nonan-4-yl)imidazo[1,2-a]pyridine-8-carboxamide, dihydrochloride]
[1]; 5 mg/kg i.p.
  Bezold Jarisch reflex (mice); % Inhibition @ Dose (IP): 1%
[1]; 10 mg/kg i.p.
  Bezold Jarisch reflex (mice); % Inhibition @ Dose (IP): 53%

## CN1[C@@H]2CC[C@H]1C[C@@H](NC(=O)c1cc(Cl)cn3ccnc13)C2 [Example 3, endo-N-(8-Methyl-8-azabicyclo [3.2.1]octan-3-yl)-6-chloroimidazo[1,2-a]pyridine-8-carboxamide, dihydrochloride]
[2]
  Ki: 50 nM
[2]; [4]
  IC50: 19.3 nM and 99 nM

## CN1[C@@H]2CC[C@H]1C[C@@H](NC(=O)c1cccn3ccnc13)C2 [Example 4, endo-N-(8-methyl-8-azabicyclo[3.2.1]octan-3-yl)imidazo [1,2-a]pyridine-8-carboxamide, hydrochloride]
[1]; 3 mg/kg i.p.
  Bezold Jarisch reflex (mice); % Inhibition @ Dose (IP): 2%
[1]; 10 mg/kg i.p.
  Bezold Jarisch reflex (mice); % Inhibition @ Dose (IP): 82%
[2]
  Ki: 416 nM
[2]; [4]
  IC50: 500 nM and 831 nM

## CN1[C@@H]2CC[C@H]1C[C@H](NC(=O)c1cccn3ccnc13)C2 [Example 5, exo-N-(8-methyl-8-azabicyclo[3.2.1]octan-3-yl)imidazo[1,2-a]pyridine-8-carboxamide, hydrochloride]
[1]; 10 mg/kg i.p.
  Bezold Jarisch reflex (mice); % Inhibition @ Dose (IP): 80%
[2]
  Ki: 314 nM
[2]; [4]
  IC50: 475 nM and 628 nM

## CN1[C@@H]2CCC[C@H]1C[C@@H](NC(=O)c1cc(Cl)cn3ccnc13)C2 [Example 6, endo-N-(9-Methyl-9-azabicyclo[3.3.1]nonan-3-yl)-6-chloroimidazo[1,2-a]pyridine-8-carboxamide hydrochloride]
[2]
  Ki: 4.9 nM

## O=C(NC1CN2CCC1CC2)c1cc(Cl)cn2ccnc12 (stereo not shown) [Example 7, N-(1-Azabicyclo[2.2.2]octan-3-yl)-6-chloroimidazo[1,2-a]pyridine-8-carboxamide dihydrochloride]
[2]
  Ki: 12 nM
[2]; [4]
  IC50: 17.5 nM and 23 nM

## O=C(NC1CN2CCC1CC2)c1cccn2ccnc12 (stereo not shown) [Example 8, N-(1-Azabicyclo[2.2.2]octan-3-yl)imidazo[1,2-a]pyridine-8-carboxamide, dihydrochloride]
[1]; 0.5 mg/kg i.p.
  Bezold Jarisch reflex (mice); % Inhibition @ Dose (IP): 82%
[1]; 2.5 mg/kg i.p.
  Bezold Jarisch reflex (mice); % Inhibition @ Dose (IP): 88%
[1]; 5 mg/kg i.p.
  Bezold Jarisch reflex (mice); % Inhibition @ Dose (IP): 95%
[1]; 10 mg/kg i.p.
  Bezold Jarisch reflex (mice); % Inhibition @ Dose (IP): 100%
[2]; read-out: 5-HT3 binding: NG108-15 cells IC50, several examples have two IC50 values
  IC50: 70 nM

## O=C(NC1C2CC3CC1CN(C3)C2)c1cc(Cl)cn2ccnc12 (stereo not drawn) [Example 11, exo-N-(1-azatricyclo[3.3.1.1^3,7]decan-4-yl)-6-chloroimidazo[1,2-a]pyridine-8-carboxamide, monohydrochloride]
[2]; [4]
  IC50: > 100 nM

## CCN(CC)CCNC(=O)c1cccn2ccnc12 [Example 12, N-[2-(Diethylamino)ethyl]imidazo[1,2-a]pyridine-8-carboxamide]
[2]; [4]
  IC50: 17 nM

## Cc1[nH]cnc1CCC(=O)c1cn(C)c2ccccc12 [GR65630]
[3]; [3H]-GR65630, rat cortex membranes
  Bmax: 154 fmol/mg protein
[3]; [3H]-GR65630, non-specific binding with 1 uM ICS 205-930
  Specific Binding: 70

## Cc1nccn1CC1CCc2c(c3ccccc3n2C)C1=O (stereo not shown) [GR-38032, reference compound]
[1]; [6]
  minimal effective dose: 0.5 mg/kg

## CN1[C@@H]2CC[C@H]1C[C@@H](OC(=O)c1c[nH]c3ccccc13)C2 [ICS 205-930]
[3]
  Hill Coefficient: 1.0

## c1ccc2nc(N3CCNCC3)ccc2c1 [Quipazine]
[3]
  Hill Coefficient: 0.86

## COc1ccc2[nH]cc(C3=CCNCC3)c2c1 [RU24969]
[3]
  Hill Coefficient: 1.0

## COc1cc(N)c(Cl)cc1C(=O)NC1CN2CCC1CC2 (stereo not shown) [Zacopride]
[3]
  Hill Coefficient: 0.86

## COc1cc(N)c(Cl)cc1C(=O)NC1CCN(CCCOc2ccc(F)cc2)CC1OC (stereo not shown) [cisapride, reference compound]
[1]; [6]
  minimal effective dose: 5 mg/kg

## CN1CCC(=C2c3ccccc3C=Cc3ccccc32)CC1 [cyproheptadine, reference compound]
[1]; [6]
  minimal effective dose: 5 mg/kg

## O=c1[nH]c2ccccc2n1CCCN1CCC(n2c(=O)[nH]c3cc(Cl)ccc32)CC1 [domperidone, reference compound]
[1]; [5]
  minimal effective dose: > 10 mg/kg

## O=C(c1ccc(F)cc1)C1CCN(CCn2c(=O)[nH]c3ccccc3c2=O)CC1 [ketanserin, reference compound]
[1]; [6]
  minimal effective dose: > 10 mg/kg

## CNC1(C)C2CCC(C2)C1(C)C (stereo not shown) [mecamylamine, reference compound]
[1]; [6]
  minimal effective dose: 2.5 mg/kg

## CC[C@@H](CO)NC(=O)[C@@H]1C=C2c3cccc4c3c(cn4C)C[C@H]2N(C)C1 [methysergide, reference compound]
[1]; [5]
  minimal effective dose: > 10 mg/kg

## CCN(CC)CCNC(=O)c1cc(Cl)c(N)cc1OC [metoclopramide, reference compound]
[1]; [5]
  minimal effective dose: 5 mg/kg

## CN1[C@@H]2C[C@@H](OC(=O)[C@H](CO)c3ccccc3)C[C@H]1[C@@H]1O[C@@H]12 [scopolamine, reference compound]
[1]; [5]
  minimal effective dose: 2.5 mg/kg
